One compound from patent US20250205256A1 (GH RESEARCH IRELAND LIMITED, priority 2022, published 2025) can be followed below.

This data set in a line: Pharmacokinetics after single inhaled dose of 5-MeO-DMT (LC-MS/MS). The conditions noted are these: metabolite after inhaled 5-MeO-DMT. The data set is classed as in vivo, human. Also on record: blood concentration relative to LLOQ: dose or concentration left out as unconfirmed. As to the method: Blood samples were obtained at 1; 2; 4; 7; 10; 15; 20; 30; 45 min and 1; 1.5; 2; 3; 4 hours after administration.
PK parameters were generated by algebraic analysis of the concentration versus time plots for each individual. The analysis was carried out using the software Phoenix WinNonlin 6.3.

On to `CN(C)CCc1c[nH]c2ccc(O)cc12` [bufotenine], for which the “blood concentration observations with uptitration scheme” value was “Substantially similar observations” and the “blood concentration relative to LLOQ” value is “Only in few samples, concentrations were above the lower level of quantification”.
